Experimental data: patent publication US20070004689A1, “Antiangiogenic agents” (priority 2004, published 2007)

Experiments:
[1] = Rat pharmacokinetics, cassette dosing, oral; type: in vivo; conditions: oral 5 mg/kg, plasma
Method: Pharmokinetics (PK): PO Cmax is the maximal concentration of drug achieved after oral administration in rats and AUC is the area under the curve. These parameters are an indication of oral bioavailability. PK parameters were determined using a cassette-dosing approach. A group of new chemical entities (NCEs) (usually 3-6 molecules) was dissolved in DMSO or ethanol and diluted with a solution of a dextrin polymer to the final working concentration (usually 0.2-2 mg/mL). Groups of three rats with in-dwelling catheters were dosed either orally (5 mg/kg) or i.v. (1 mg/kg) with the cassette of NCEs. Blood was collected at nine time points from 2 minutes to 24 hours. Plasma was separated and aliquots of the replicate samples were pooled for analysis. Plasma proteins were precipitated by addition of organic solvent (most often methanol or acetonitrile). For some analogs, an acid modifier was added to the precipitation mixture to enhance recovery. Precipitated proteins were removed by centrifugation and the supernatant was injected onto a C18 reversed phase column attached to an LC-MS-MS mass spectrometer. Analytes were partly resolved by a rapid (5 minute) gradient of organic modifier. Analytes were measured as either positive or negative ions, depending on ionization characteristics, in the SRM (or MS-MS) mode. Quantification was carried out by correlation of peak heights or areas for each analyte to a set of concentration standards of the same analytes diluted into blank plasma. Concentration vs. time data was analyzed by WinNonLin.

MCF7 cells = assay: MCF7 estrogen-dependent proliferation assay (estrogenicity); type: cell-based, human; conditions: stimulation index, 2ME2 defined as 1.00; less than 1.00 = reduced estrogenicity; 7 days of treatment
Text: Cell Culture: Human umbilical vein endothelial cells (HUVEC) were obtained from Clonetics (San Diego, Calif.), MCF7 cells were the kind gift of Dr. Dorraya El Ashry (University of Michigan), MDA-MB-231 a human breast carcinoma, PC3 a human prostate carcinoma, and U87-MG a human glioma, cell lines were obtained from ATCC. HUVEC cultures were maintained for up to 5 passages in EGM containing bovine brain extract (Clonetics) and 1× antibiotic-antimycotic (BioWhittaker, Walkersville, Md.). MDA-MB-231, PC3, U87-MG and MCF-7 cells were maintained in DMEM/F12 (1:1) containing 10% (v/v) fetal bovine serum (Hyclone Laboratories, Logan, Utah) and 1× antibiotic-antimycotic. MCF7 cells were used between passage 60 and passage 100.
Proliferation Assays: Proliferation was measured by cell counting using a Coulter Zl cell counter (Coulter Corporation, Hialeah, Fla.) or by evaluation of DNA synthesis. Each condition was done in triplicate and experiments were repeated at least twice. To determine estrogenicity of the analogs, MCF7 estrogen-dependent proliferation assays were performed. The cells were seeded in complete media at 10,000 cells/well in a 24 well plate after allowing the cells to adhere overnight and the seeding density was determined by cell counts. Cells were washed with PBS (37° C.) and starved by placing them in IMEM-phenol red free media containing 2% charcoal-dextran fetal bovine-stripped serum (Valley Biomedical, Winchester, Va.) and 1× antibiotic-antimycotic. After 3 days of starvation, cells were treated with or without increasing concentrations of compounds, replacing the media every 2-3 days and counted after 7 days of treatment. In order to ensure that only the added test compounds stimulated growth, experiments were performed only with cell cultures that duplicated less than once during the starvation period. […]. Estradiol is used as a positive control.

SMILES | AUC ([1]; rat) [µM·h] | Cmax ([1]; rat) [nM] | MCF7 SI Relative to 2ME2 (MCF7 cells) | Cmax [1] [nM] | Rat PO AUC (nM) [1] [µM·h]
C=C1CC[C@H]2[C@@H]3CCc4cc(C(N)=O)c(OC)cc4[C@H]3CC[C@]12C [Compound 60, 2-Methoxy-17-methyleneestra-1,3,5(10)-triene-3-carboxamide] | 1.4 | 185 | 0.26 | – | –
COc1cc2c(cc1C(N)=O)CC[C@@H]1[C@@H]2CC[C@]2(C)C(=O)CC[C@@H]12 [Compound 54, 2-methoxy-17-oxoestra-1,3,5(10)-triene-3-carboxamide] | 0.185 | 47 | 0.26 | – | –
COc1cc2c(cc1C(N)=O)CC[C@@H]1[C@@H]2CC[C@]2(C)C=CC[C@@H]12 [Compound 63, 3-carboxamide-2-methoxy-1,3,5(10)16-estratetraene] | – | – | 0.28 | 127 | 0.961
COc1cc2c(cc1C(N)=O)CC[C@@H]1[C@@H]2CC[C@]2(C)CCC[C@@H]12 [Compound 57, (2-Methoxyestra-1,3,5(10)-trien-3-yl)-3-carboxamide] | – | – | 0.31 | 130 | 0.624
